For series [1], the system named is E. coli Tü21‐031 (Oxa244, ESBL). The experiment in a line: microbe, parasite or virus in culture. It counts as cell-based. The settings on record: Escherichia coli, combinations: avibactam fixed 4 mg L^−1, median (n = 3). The procedure, abridged:
(§1)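 Twofold dilutions in cation-adjusted MHB II, inoculum 5 × 10^5 CFU mL^−1. Combination tests used clavulanic acid at 2 mg L^−1 or avibactam at 4 mg L^−1, fixed per EUCAST.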

In series [2] the test system is A. baumannii SC300007 (Oxa23). As to the kind of experiment: microbe, parasite or virus in culture. The series is classed as cell-based. The settings on record: Acinetobacter baumannii, 20 h, combinations: avibactam fixed 4 mg L^−1, clavulanic acid 2 mg L^−1, median (n = 3). The procedure, abridged:
as §1

The test system of another series is E. coli ATCC 25 922 (–). As to the kind of experiment: microbe, parasite or virus in culture. It counts as cell-based. The settings on record: Escherichia coli, 20 h; E. coli ATCC 25922 (no β‐lactamase); combinations: avibactam fixed 4 mg L^−1, clavulanic acid 2 mg L^−1; median (n = 3). The procedure, abridged:
as §1

The test system of series [3] is K. pneumoniae ATCC 700 603 (SHV‐18). As to the kind of experiment: microbe, parasite or virus in culture. It counts as cell-based. The settings on record: Klebsiella pneumoniae, 20 h; K. pneumoniae ATCC 700603 (SHV‐18); combinations: avibactam fixed 4 mg L^−1, clavulanic acid 2 mg L^−1; median (n = 3). The procedure, abridged: as §1
For series [4], the system named is A. pittii Tü21‐041 (clinical isolate). The experiment in a line: microbe, parasite or virus in culture. The series is classed as cell-based. The note with it: Acinetobacter pittii; A. pittii Tü21‐041; median (n = 3); read-out: MIC. The procedure, abridged:
as §1

In series [5] the test system is K. pneumoniae 0 6841/Nr.45 (Oxa48). As to the kind of experiment: microbe, parasite or virus in culture. It counts as cell-based. The note with it: Klebsiella pneumoniae, 20 h; K. pneumoniae 06841/Nr.45 (Oxa48); combinations: avibactam fixed 4 mg L^−1, clavulanic acid 2 mg L^−1; median (n = 3). The procedure, abridged: as §1
Series [6] concerns K. pneumoniae BL809453 (KPC). As to the kind of experiment: microbe, parasite or virus in culture. The series is classed as cell-based. The note with it: Klebsiella pneumoniae, 20 h, combinations: avibactam fixed 4 mg L^−1, clavulanic acid 2 mg L^−1, median (n = 3). The procedure, abridged: as §1
The test system of series [7] is C. freundii Tü21‐052 (clinical isolate). The experiment in a line: microbe, parasite or virus in culture. The series is classed as cell-based. The note with it: Citrobacter freundii; C. freundii Tü21‐052; median (n = 3); read-out: MIC. The method in brief:
as §1

For series [8], the system named is Enterobacteriaceae (CTZ‐resistant). The experiment in a line: MIC compared with parent β‐lactam. The series is classed as cell-based. The method, then:
(§2) The minimum inhibitory concentration (MIC) of the β‐lactam–peptide conjugates was determined by broth microdilution as previously described.^[ [17] ^] Briefly, in cation‐adjusted MHB II medium, a twofold serial dilution of the compounds was prepared in 96‐well round‐bottom polystyrene or polypropylene microtiter plates with each well containing 50 µL. The plates were inoculated with 50 µL bacterial suspension and the final inoculum, in a total volume of 100 µL, contained 5 × 10^5 CFU mL^−1. The microplates were incubated for 20 h at 37 ± 1 °C. The lowest concentration preventing visible bacterial growth was considered the MIC value. For susceptibility testing of combinations of β‐lactamase‐inhibitors with either a β‐lactam antibiotic or a β‐lactam–peptide conjugate, fixed concentrations of the inhibitors according to the EUCAST (European Committee on Antimicrobial Susceptibility Testing) guidelines (clavulanic acid = 2 mg L^−1, avibactam = 4 mg L^−1) were used.

In a further series the test system is E. faecalis (vanB). The experiment in a line: MIC compared with parent β‐lactam. The note with it: on a molar level. It counts as cell-based. The method, then: as §2
In a further series the test system is Gram‐negative bacteria. The experiment in a line: MIC compared with parent β‐lactam. It counts as cell-based. The method, then: as §2
In another series the test system is Gram‐positive bacteria. As to the kind of experiment: MIC compared with parent β‐lactam. It counts as cell-based. The method, then: as §2
The subject of series [9] is VRE E. faecium UW 18 830 (vanA). As to the kind of experiment: Systemic infection VRE mouse model. The series is classed as in vivo, female Balb/c mice. The settings on record: VRE E. faecium UW18830 infected Balb/c mice, 30 mg kg^−1 day^−1 i.v., 48 h p.i., compared to CTZ or PBS. An excerpt:
The animal infection studies were approved by the local government of Lower Franconia, Germany (approval number 55.2.2‐2532.2‐1283) and performed in strict accordance with the guidelines for animal care and experimentation of the German Animal Protection Law and the DIRECTIVE 2010/63/EU of the EU. The animals were housed in individually ventilated cages under standardized lighting conditions and had ad libitum access to food and water. To evaluate the in vivo activity during systemic infection, female Balb/c mice were infected with 5×10^7 CFU of VRE E. faecium UW 18 830 (vanA) by tail vein injection. Beginning at 1 h p.i., then repeatedly every 12 h, mice received intravenously either CTZ (30 mg kg body weight^−1 day^−1), CTZ‐R6 (30 mg kg body weight^−1 day^−1) or sterile PBS. The livers were recovered 48 h p.i. (12 h after the last treatment) and frozen at – 80 °C until further processing. For the determination of the bacterial burden, the livers were thawed, homogenized in PBS and plated in serial dilutions on brain heart infusion agar plates. CFU were counted after overnight incubation at 37 °C.

A short description of series [10]: Scintigraphy and biodistribution in rats. Set-up: species or system Wistar rats. The note with it: rat, in vivo, iv. The method, then:
To enable radiolabeling of the β‐lactam–peptide conjugates, their peptide sequence was elongated by an N‐terminal D‐tyrosine. […] The solution was mixed with 5 MBq of iodine‐125 and radiolabeling was performed using the chloramine T method as previously described.^[ [35] ^] After 30 s, the reaction was quenched by the addition of a saturated methionine solution and the radiolabeled compound purified by reversed‐phase preparative radio‐HPLC (1100 series, Agilent Technologies, Santa Clara, CA, USA). Analysis was performed by analytical radio‐HPLC (1100 series, Agilent Technologies, Santa Clara, CA, USA) using a linear gradient from water (+ 0.1% TFA) to acetonitrile (+ 0.1% TFA) over 5 min at a flow rate of 2 mL min^−1.
All animal studies were approved by the Animal Care and Use committees from Regierungspräsidium Karlsruhe (Karlsruhe, Germany; reference number 35–9185.81/G‐199/21; date of approval: November 23, 2021). […]
The biodistribution of CTZ‐yR6 in Wistar rats was determined at 10 min and 3 h post injection. […] Using a Cobra γ‐counter (Packard Bioscience, Meriden, CT, USA), the amount of radioactivity in each sample was measured which was then used in combination with the organ weight and injected dose for the calculation of the […] per gram of tissue (%ID g^−1).

Bounds are passed on as bounds.

`CC(C)(O/N=C(\C(=O)N[C@@H]1C(=O)N2C(C(=O)[O-])=C(C[n+]3ccccc3)CS[C@H]12)c1csc(N)n1)C(=O)O` [CTZ, ceftazidime, reference compound]: the MIC is 32 µg/mL in [1]; above 64 µg/mL in series [2]; 0.25 µg/mL in the series with E. coli ATCC 25 922 (–); 64 µg/mL in series [3]; 4 µg/mL in series [4]; above 64 µg/mL in series [5]. Besides, the results for the MIC in series [6] and in series [7] were above 64 µg/mL and 0.25 µg/mL, respectively.

On to `CC(C)(O/N=C(\C(=O)N[C@@H]1C(=O)N2C(C(=O)[O-])=C(C[n+]3ccccc3)CS[C@H]12)c1csc(N)n1)C(=O)NCCCCCCN1C(=O)CC(SC[C@H](NC(=O)[C@H](CCCNC(=N)N)NC(=O)[C@H](CCCNC(=N)N)NC(=O)[C@H](CCCNC(=N)N)NC(=O)[C@H](CCCNC(=N)N)NC(=O)[C@H](CCCNC(=N)N)NC(=O)[C@@H](N)CCCNC(=N)N)C(N)=O)C1=O` (some centres unmarked) [CTZ-R6], for which the “increase in antimicrobial activity versus CTZ” value in [8] is “ca. fourfold”; with E. faecalis (vanB), around 300 fold. Besides, the “increase in antimicrobial activity versus CTZ (factor)” value in the series with Gram‐negative bacteria is listed as 2–32; with Gram‐positive bacteria it was “≈ 1000”. Further, the “bacterial burden in the liver (CFU)” value in [9] was “reduced the bacterial burden in the liver”. For the same compound, in series [10], the “biodistribution (organ accumulation)” value was “accumulated in the liver and in the kidneys”.

(Values after paper PMC11672299, “Conjugation of Polycationic Peptides Extends the Efficacy Spectrum of β‐Lactam Antibiotics” (Advanced Science, 2024).)
